C[C@H](NC(=O)c1c(CN2CCOCC2)c(-c2ccccc2)nc2ccccc12)C1CCCCC1 [Example 54, 3-Morpholin-4-ylmethyl-2-phenyl-quinoline-4-carboxylic acid ((S)-1-cyclohexyl-ethyl)-amide]
melting point: 178 to 180 °C

CC[C@H](NC(=O)c1c(CN2CCC(N)CC2)c(-c2ccccc2)nc2ccccc12)c1ccccc1 [Example 55, 3-(4-Amino-piperidin-1-ylmethyl)-2-phenyl-quinoline-4-carboxylic acid ((S)-1-phenyl-propyl)-amide]
melting point: 98 to 102 °C

CC[C@H](NC(=O)c1c(CN2CCN(c3ccccn3)CC2)c(-c2ccccc2)nc2ccccc12)c1ccccc1 [Example 56, 2-Phenyl-3-(4-pyridin-2-yl-piperazin-1-ylmethyl)-quinoline-4-carboxylic acid ((S)-1-phenyl-propyl)-amide]
melting point: 125 to 126 °C

COCCN(CCOC)Cc1c(-c2ccccc2)nc2ccccc2c1C(=O)N[C@@H](C)C1CCCCC1 [Example 58, 3-{[Bis-(2-methoxy-ethyl)-amino]-methyl}-2-phenyl-quinoline-4-carboxylic acid ((S)-1-cyclohexyl-ethyl)-amide]
melting point: 114 to 115 °C

C[C@H](NC(=O)c1c(CN2CCN(c3ccccn3)CC2)c(-c2ccccc2)nc2ccccc12)C1CCCCC1 [Example 59, 2-Phenyl-3-(4-pyridin-2-yl-piperazin-1-ylmethyl)-quinoline-4-carboxylic acid ((S)-1-cyclohexyl-ethyl)-amide]
melting point: 152 to 154 °C

CC[C@H](NC(=O)c1c(CN2C[C@@H](C)N[C@@H](C)C2)c(-c2ccccc2)nc2ccccc12)c1ccccc1 [Example 60, 3-((3R,5S)-3,5-Dimethyl-piperazin-1-ylmethyl)-2-phenyl-quinoline-4-carboxylic acid ((S)-1-phenyl-propyl)-amide]
melting point: 114 to 120 °C

C[C@H](NC(=O)c1c(CN2CCC3(CC2)OCCO3)c(-c2ccccc2)nc2ccccc12)C1CCCCC1 [Example 61, 3-(1,4-Dioxa-8-aza-spiro[4.5]dec-8-ylmethyl)-2-phenyl-quinoline-4-carboxylic acid ((S)-1-cyclohexyl-ethyl)-amide]
melting point: 184 to 185 °C

CC[C@H](NC(=O)c1c(CN2CCC(N3CCN(C)CC3)CC2)c(-c2ccccc2)nc2ccccc12)c1ccccc1 [Example 62, 3-[4-(4-Methyl-piperazin-1-yl)-piperidin-1-ylmethyl]-2-phenyl-quinoline-4-carboxylic acid ((S)-1-phenyl-propyl)-amide]
melting point: 85 to 100 °C

CC[C@H](NC(=O)c1c(CN2CCC3(CC2)CNC(=O)C3)c(-c2ccccc2)nc2ccccc12)c1ccccc1 [Example 63, 3-(3-Oxo-2,8-diaza-spiro[4.5]dec-8-ylmethyl)-2-phenyl-quinoline-4-carboxylic acid ((S)-1-phenyl-propyl)-amide]
melting point: 129 to 131 °C

CC[C@H](NC(=O)c1c(CN2CCC(N3CCCCC3)CC2)c(-c2ccccc2)nc2c(Br)c(OC)ccc12)c1ccccc1 [Example 66, 3-[1,4′]Bipiperidinyl-1′-ylmethyl-8-bromo-7-methoxy-2-phenyl-quinoline-4-carboxylic acid ((S)-1-phenyl-propyl)-amide]
melting point: 156 to 160 °C

C[C@H](NC(=O)c1c(CN2CCN(c3c(N4CCCC4)c(=O)c3=O)CC2)c(-c2ccccc2)nc2ccccc12)C1CCCCC1 [Example 72, 3-[4-(3,4-Dioxo-2-pyrrolidin-1-yl-cyclobut-1-enyl)-piperazin-1-ylmethyl]-2-phenyl-quinoline-4-carboxylic acid ((S)-1-cyclohexyl-ethyl)-amide]
melting point: 170 to 180 °C

CNC(=NC#N)N1CCN(Cc2c(-c3ccccc3)nc3ccccc3c2C(=O)N[C@@H](C)C2CCCCC2)CC1 [Example 73, 3-[4-(-1-Cyanoimino-1-methylamino-methyl)-piperazin-1-ylmethyl]-2-phenyl-quinoline-4-carboxylic acid ((S)-1-cyclohexyl-ethyl)amide]
melting point: 175 to 180 °C

C[C@H](NC(=O)c1c(CN2CCN(C3=NCCS3)CC2)c(-c2ccccc2)nc2ccccc12)C1CCCCC1 [Example 74, 3-[4-(4,5-Dihydro-thiazol-2-yl)-piperazin-1-ylmethyl]-2-phenyl-quinoline-4-carboxylic acid ((S)-1-cyclohexyl-ethyl)-amide]
melting point: 174 to 176 °C

CNC(=S)N1CCN(Cc2c(-c3ccccc3)nc3ccccc3c2C(=O)N[C@@H](C)C2CCCCC2)CC1 [Example 75, 3-(4-Methylthiocarbamoyl-piperazin-1-ylmethyl)-2-phenyl-quinoline-4-carboxylic acid ((S)-1-cyclohexyl-ethyl)-amide]
melting point: 204 to 206 °C

C[C@H](NC(=O)c1c(CN2CCN(C(=NC#N)N3CCCC3)CC2)c(-c2ccccc2)nc2ccccc12)C1CCCCC1 [Example 76, 3-[4-(1-Cyanoimino-1-pyrrolidin-1-yl-methyl)-piperazin-1-ylmethyl]-2-phenyl-quinoline-4-carboxylic acid ((S)-1-cyclohexyl-ethyl)-amide]
melting point: 154 to 155 °C

CC[C@H](NC(=O)c1c(CN2CCC(N3CCNC3=O)CC2)c(-c2ccccc2)nc2ccccc12)c1ccccc1 [Example 77, 3-[4-(2-Oxo-imidazolidin-1-yl)-piperidin-1-ylmethyl]-2-phenyl-quinoline-4-carboxylic acid ((S)-1-phenyl-propyl)-amide]
melting point: 240 to 242 °C

CCN(CC)CCC(=O)N1CCN(Cc2c(-c3ccccc3)nc3ccccc3c2C(=O)N[C@H](c2ccccc2)C(C)C)CC1 [Example 80, 3-[4-(3-Diethylamino-propanoyl)-piperazin-1-ylmethyl]-2-phenyl-quinoline-4-carboxylic acid ((S)-2-methyl-1-phenyl-propyl)-amide]
melting point: 120 to 125 °C

C[C@H](NC(=O)c1c(CN2CCN(C(=C[N+](=O)[O-])N3CCCC3)CC2)c(-c2ccccc2)nc2ccccc12)C1CCCCC1 [Example 81, 3-[4-(2-Nitro-1-pyrrolidin-1-yl-vinyl)-piperazin-1-ylmethyl]-2-phenyl-quinoline-4-carboxylic acid ((S)-1-cyclohexyl-ethyl)-amide]
melting point: 164 to 165 °C

C[C@H](NC(=O)c1c(CN2CCN(C(=O)CCC(=O)O)CC2)c(-c2ccccc2)nc2ccccc12)C1CCCCC1 [Example 83, 4-{4-[4-((S)-1-Cyclohexyl-ethylcarbamoyl)-2-phenyl-quinolin-3-ylmethyl]-piperazin-1-yl}-4-oxo-butyric acid]
melting point: 208 to 209 °C

C[C@H](NC(=O)c1c(CN2CCN(C(=NS(C)(=O)=O)N3CCCC3)CC2)c(-c2ccccc2)nc2ccccc12)C1CCCCC1 [Example 84, 3-[4-(1-Methanesulfonylimino-1-pyrrolidin-1-yl-methyl)-piperazin-1-ylmethyl]-2-phenyl-quinoline-4-carboxylic acid ((S)-1-cyclohexyl-ethyl)-amide]
melting point: 130 to 140 °C

CC(C)[C@H](NC(=O)c1c(CN2CCN(C(=O)CCC(=O)O)CC2)c(-c2ccccc2)nc2ccccc12)c1ccccc1 [Example 85, 4-{4-[4-((S)-2-Methyl-1-phenyl-propylcarbamoyl)-2-phenyl-quinolin-3-ylmethyl]-piperazin-1-yl}-4-oxo-butyric acid]
melting point: 173 to 175 °C

CC(C)[C@H](NC(=O)c1c(CN2CCN(C(=O)c3ccccc3C(=O)O)CC2)c(-c2ccccc2)nc2ccccc12)c1ccccc1 [Example 86, 2-(1-{4-[4-((S)-2-Methyl-1-phenyl-propylcarbamoyl)-2-phenyl-quinolin-3-ylmethyl]-piperazin-1-yl}-methanoyl)-benzoic acid]
melting point: 189 to 191 °C

C[C@H](NC(=O)c1c(CN2CCN(C(=O)c3ccccc3C(=O)O)CC2)c(-c2ccccc2)nc2ccccc12)C1CCCCC1 [Example 87, 2-(1-{4-[4-((S)-1-Cyclohexyl-ethylcarbamoyl)-2-phenyl-quinolin-3-ylmethyl]-piperazin-1-yl}-methanoyl)-benzoic acid]
melting point: 209 to 211 °C

COc1ccc2c(C(=O)N[C@@H](C)C3CCCCC3)c(CN3CCC(N4CCCCC4)CC3)c(-c3ccccc3)nc2c1 [Example 88, 3-[1,4′]Bipiperidinyl-1′-ylmethyl-7-methoxy-2-phenyl--quinoline-4-carboxylic acid ((S)-1-cyclohexyl-ethyl)-amide]
melting point: 139 to 144 °C (dec.)

CC[C@H](NC(=O)c1c(CN2CCC(N3CCCCC3)CC2)c(-c2ccccc2)nc2c(Cl)c(O)ccc12)c1ccccc1 [Example 89, 3-[1,4′]Bipiperidinyl-1′-ylmethyl-8-chloro-7-hydroxy-2-phenyl-quinoline-4-carboxylic acid ((S)-1-phenyl-propyl)-amide]
melting point: 209 to 216 °C (dec.)

CC[C@H](NC(=O)c1c(CN2CCN(S(N)(=O)=O)CC2)c(-c2ccccc2)nc2ccccc12)c1ccccc1 [Example 90, 2-Phenyl-3-(4-sulfamoyl-piperazin-1-ylmethyl)-quinoline-4-carboxylic acid ((S)-1-phenyl-propyl)-amide]
melting point: 133 °C (dec.)

CC[C@H](NC(=O)c1c(CN2CCN(S(=O)(=O)N(C)C)CC2)c(-c2ccccc2)nc2ccccc12)c1ccccc1 [Example 91, 3-(4-Dimethylsulfamoyl-piperazin-1-ylmethyl)-2-phenyl-quinoline-4-carboxylic acid ((S)-1-phenyl-propyl)-amide]
melting point: 107 to 111 °C (dec.)

C[C@H](NC(=O)c1c(CN2CCN(CC(=O)O)CC2)c(-c2ccccc2)nc2ccccc12)C1CCCCC1 [Example 92, {4-[4-((S)-1-Cyclohexyl-ethylcarbamoyl)-2-phenyl-quinolin-3-ylmethyl]-piperazin-1-yl}-acetic acid]
melting point: 188 to 195 °C

CC[C@H](NC(=O)c1c(CN2CCC(N3CCCCC3)CC2)c(-c2ccccc2)nc2cc(O)ccc12)c1ccccc1 [Example 95, 3-[1,4′]Bipiperidinyl-1′-ylmethyl-7-hydroxy-2-phenyl-quinoline-4-carboxylic acid ((S)-1-phenyl-propyl)-amide]
melting point: 158 to 162 °C

Source: US6780875B2, “Quinoline-4-carboxamide derivatives as NK-3 and NK-2 receptor antagonists” (SmithKline Beecham S.p.A., priority 1998, dated 2004)
